In patent US20250325467A1, “COMPOSITIONS FOR PREVENTING OR TREATING SKIN AGING” (ESTETRA SRL, priority 2021, published 2025):

Tests used:
[1] = Tissue distribution (QWBA) of [^14C]-estetrol after a single oral dose in non-pigmented rats; type: in vivo; conditions: single oral 15 mg/kg, 3 hour (Rat 08F)
[2] = Tissue distribution (QWBA) of [^14C]-estetrol after a single oral dose in partially pigmented rats; conditions: for Concentration of radioactivity, Skin: Non-pigmented / Concentration of radioactivity, Skin: Pigmented / Tissue:Blood ratio, Skin: Non-pigmented / Tissue:Blood ratio, Skin: Pigmented / Total amount of radioactivity, Skin (non-pigmented) / Total amount of radioactivity, Skin (pigmented): single oral 15 mg/kg
Description: Tissue distribution was determined in female rats (partially pigmented and non-pigmented) using [^14C]-estetrol.
A group of six female Lister Hooded rats each received a single oral dose of [^14C]-estetrol. At each selected time (see below) one animal was killed (by overdose of CO2) followed by immediate snap freezing in hexane/solid CO2. The carcasses were retained for examination of the tissue distribution of radioactivity using the technique of quantitative whole body autoradiography (QWBA).
Times for analysis were: (0.5, 8, and 24 hours, 7, 14 and 35 days)
Frozen carcasses were subjected to whole-body autoradiography.
Where concentrations are reported, radioactivity was assumed to be associated with [^14C]-estetrol or any metabolic products derived from [^14C]-estetrol. The specific activities of the dosed test compounds were used for the calculation of concentrations in all cases. Recoveries of radioactivity are reported as percentage of administered radioactivity (% dose). Radioactivity concentrations are also reported as pg equivalents/g.

[3] = Tissue distribution (QWBA) of [^14C]-estetrol after a single oral dose in non-pigmented rats; type: in vivo, rat; conditions: for Concentration of radioactivity, Skin: Non-pigmented / Tissue:Blood ratio, Skin: Non-pigmented: non-pigmented rats, single oral 15 mg/kg
Description: Times for analysis were: 0.5, 1, 2, 5, 8, 24 and 48 hours
Distribution of radioactivity in tissues was determined and quantified using the Fuji FLA-5100 fluorescent image analyser and associated Tina and SeeScan software. Tissue concentrations of radioactivity were determined using calibrated autoradiographic microscales produced by GE Healthcare. A standard curve was produced using the microscales from which tissue concentrations of radioactivity were determined (nCi/g). These values were then converted into pg equivalents/g using the specific activity of the dose formulation.
Radioactivity concentrations are also reported as […] equivalents/g.

[4] = partially pigmented rats, 0.5 hours
[5] = partially pigmented rats, 8 hours
[6] = partially pigmented rats, 24 hours
[7] = partially pigmented rats, 7 days
[8] = partially pigmented rats, 14 days
[9] = partially pigmented rats, 35 days

Substance: [^14C]-estetrol
- Tissue:Blood ratio, Skin: Non-pigmented [1]: 0.99
- concentration of radioactivity, liver (greatest concentration) ([2]; female partially pigmented rats, single oral dose, 0.5 hours): 13.7 μg equivalents/g
- Concentration of radioactivity, Skin: Non-pigmented [2, 4]: 1.89 microgram equivalents/gram
- Concentration of radioactivity, Skin: Pigmented [2, 4]: 2.85 microgram equivalents/gram
- Tissue:Blood ratio, Skin: Non-pigmented [2, 4]: 0.71
- Tissue:Blood ratio, Skin: Pigmented [2, 4]: 1.07
- Total amount of radioactivity, Skin (non-pigmented) [2, 4]: 1.136 % dose administered/tissue
- Total amount of radioactivity, Skin (pigmented) [2, 4]: 1.714 % dose administered/tissue
- Concentration of radioactivity, Skin: Non-pigmented [2, 5]: 0.090 microgram equivalents/gram
- Concentration of radioactivity, Skin: Pigmented [2, 5]: 0.161 microgram equivalents/gram
- Tissue:Blood ratio, Skin: Non-pigmented [2, 5]: 0.56
- Tissue:Blood ratio, Skin: Pigmented [2, 5]: 1.01
- Total amount of radioactivity, Skin (non-pigmented) [2, 5]: 0.059 % dose administered/tissue
- Total amount of radioactivity, Skin (pigmented) [2, 5]: 0.099 % dose administered/tissue
- Concentration of radioactivity, Skin: Non-pigmented [2, 6]: BLQ
- Concentration of radioactivity, Skin: Pigmented [2, 6]: 0.113 microgram equivalents/gram
- Total amount of radioactivity, Skin (non-pigmented) [2, 6]: <0.041 % dose administered/tissue
- Total amount of radioactivity, Skin (pigmented) [2, 6]: 0.061 % dose administered/tissue
- Concentration of radioactivity, Skin: Non-pigmented [2, 7]: BLQ
- Concentration of radioactivity, Skin: Pigmented [2, 7]: BLQ
- Total amount of radioactivity, Skin (non-pigmented) [2, 7]: <0.043 % dose administered/tissue
- Total amount of radioactivity, Skin (pigmented) [2, 7]: <0.043 % dose administered/tissue
- Concentration of radioactivity, Skin: Non-pigmented [2, 8]: BLQ
- Concentration of radioactivity, Skin: Pigmented [2, 8]: BLQ
- Total amount of radioactivity, Skin (non-pigmented) [2, 8]: <0.038 % dose administered/tissue
- Total amount of radioactivity, Skin (pigmented) [2, 8]: <0.038 % dose administered/tissue
- Concentration of radioactivity, Skin: Non-pigmented [2, 9]: BLQ
- Concentration of radioactivity, Skin: Pigmented [2, 9]: BLQ
- Total amount of radioactivity, Skin (non-pigmented) [2, 9]: <0.041 % dose administered/tissue
- Total amount of radioactivity, Skin (pigmented) [2, 9]: <0.041 % dose administered/tissue
- concentration of radioactivity, liver ([2]; partially pigmented rats, single oral dose, 7 days after dosing): 0.410 μg equivalents/g
- concentration of radioactivity, majority of tissues (BLQ) ([2]; partially pigmented rats, single oral dose, by 24 hours): < 0.076 μg equivalents/g
- concentration of radioactivity, all analyzed tissues except liver, including uveal tract and pigmented skin ([2]; partially pigmented rats, single oral dose, by 7 days): at or below the limit of quantification
- concentration of radioactivity, liver (greatest concentration) ([3]; female non-pigmented rats, single oral dose, 0.5 hours): 12.5 microgram equivalents/gram
- Concentration of radioactivity, Skin: Non-pigmented ([3]; 0.5 hours): 2.59 microgram equivalents/gram
- Tissue:Blood ratio, Skin: Non-pigmented ([3]; 0.5 hours): 1.05
- Concentration of radioactivity, Skin: Non-pigmented ([3]; 1 hour): 0.771 microgram equivalents/gram
- Concentration of radioactivity, Skin: Non-pigmented ([3]; 2 hours): 0.465 microgram equivalents/gram
- Tissue:Blood ratio, Skin: Non-pigmented ([3]; 2 hours): 1.72
- Concentration of radioactivity, Skin: Non-pigmented ([3]; 5 hours): 0.189 microgram equivalents/gram
- Tissue:Blood ratio, Skin: Non-pigmented ([3]; 5 hours): 1.66
- Concentration of radioactivity, Skin: Non-pigmented ([3]; 8 hours): 0.361 microgram equivalents/gram
- Tissue:Blood ratio, Skin: Non-pigmented ([3]; 8 hours): 1.77
- Concentration of radioactivity, Skin: Non-pigmented ([3]; 24 hours): BLQ
- Concentration of radioactivity, Skin: Non-pigmented ([3]; 48 hours): BLQ
